Source: patent publication US20170226120A1, “INHIBITORS OF HIF PROLYL HYDROXYLASE” (MERCK SHARP & DOHME CORP., priority 2014, published 2017)

Molecular target: T1, human HIF-PHD2 (Homo sapiens, UniProt Q9GZT9)
T1 construct: FLAG-tagged full length PHD2 expressed in and purified from baculovirus-infected Sf9 cells; FLAG; made in house; host or cells: baculovirus-infected Sf9 cells
Experiment: HIF-PHD2 inhibition, time resolved fluorescence assay of HIF-1α peptide hydroxylation
Format: biochemical
Settings: FLAG-tagged full length PHD2; 0.2 μM 2-oxoglutarate, 0.5 μM HIF-1α peptide
Protocol: To each well of a 384-well plate, 1 μL of test compounds in DMSO (final concentration ranging from 0.3 nM to 10 uM) were added into 20 μl of assay buffer (50 mM Tris pH 7.4/0.01% Tween-20/0.1 mg/ml bovine serum albumin/10 μM ferrous sulfate/1 mM sodium ascorbate/20 μg/ml catalase) containing 0.15 μg/ml FLAG-tagged full length PHD2 expressed in and purified from baculovirus-infected Sf9 cells. After a 5 min preincubation at room temperature, the enzymatic reactions were initiated by the addition of 4 μL of substrates {final concentrations of 0.2 μM 2-oxoglutarate and 0.5 μM HIF-1α peptide biotinyl-[…] […] After incubation for 45 minutes at room temperature, the reactions were terminated by the addition of a 25 μL quench/detection mix to a final concentration of 1 mM ortho-phenanthroline, 0.1 mM EDTA, 0.5 nM anti-(His)6 LANCE reagent (Perkin-Elmer Life Sciences), 100 nM AF647-labeled streptavidin (Invitrogen), and 2 μg/ml (His)6-VHL complex {S. Tan Protein Expr. Purif.

T1 sequence (Q9GZT9 whole entry): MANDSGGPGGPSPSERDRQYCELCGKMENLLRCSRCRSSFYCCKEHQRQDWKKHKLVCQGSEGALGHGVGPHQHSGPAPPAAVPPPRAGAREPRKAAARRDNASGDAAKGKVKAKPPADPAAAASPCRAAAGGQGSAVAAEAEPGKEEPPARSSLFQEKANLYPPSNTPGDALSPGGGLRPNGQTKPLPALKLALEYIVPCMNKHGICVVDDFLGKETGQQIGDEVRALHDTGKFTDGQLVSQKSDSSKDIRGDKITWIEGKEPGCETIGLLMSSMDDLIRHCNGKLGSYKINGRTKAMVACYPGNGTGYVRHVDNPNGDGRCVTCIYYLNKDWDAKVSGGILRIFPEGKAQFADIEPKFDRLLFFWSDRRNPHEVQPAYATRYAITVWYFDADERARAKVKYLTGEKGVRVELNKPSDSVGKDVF

| Compound | IC50 |
| --- | --- |
| O=C(N[C@H](CO)C(=O)O)c1c(O)c2c(n(Cc3ccc(C(F)(F)F)cc3)c1=O)COC2 [Example 1, (R)-3-Hydroxy-2-(4-hydroxy-2-oxo-1-(4-(trifluoromethyl)benzyl)-1,2,5,7-tetrahydrofuro[3,4-b]pyridine-3-carboxamido)propanoic acid] | 59.7 nM |
| O=C(N[C@@H](CO)C(=O)O)c1c(O)c2c(n(Cc3ccc(C(F)(F)F)cc3)c1=O)COC2 [Example 2, (S)-3-hydroxy-2-(4-hydroxy-2-oxo-1-(4-(trifluoromethyl)benzyl)-1,2,5,7-tetrahydrofuro[3,4-b]pyridine-3-carboxamido)propanoic acid] | 109 nM |
| C[C@H](NC(=O)c1c(O)c2c(n(Cc3ccc(C(F)(F)F)cc3)c1=O)COC2)C(=O)O [Example 3, (S)-2-(4-hydroxy-2-oxo-1-(4-(trifluoromethyl)benzyl)-1,2,5,7-tetrahydrofuro[3,4-b]pyridine-3-carboxamido)propanoic acid] | 36.4 nM |
| O=C(O)CNC(=O)c1c(O)c2c(n(Cc3cc[nH]n3)c1=O)COC2 [Example 4, 2-(1-((1H-pyrazol-3-yl)methyl)-4-hydroxy-2-oxo-1,2,5,7-tetrahydrofuro[3,4-b]pyridine-3-carboxamido)acetic acid] | 9.2 nM |
| CS(=O)(=O)c1ccc(Cn2c3c(c(O)c(C(=O)NCC(=O)O)c2=O)COC3)cc1 [Example 7, 2-(4-hydroxy-1-(4-(methylsulfonyl)benzyl)-2-oxo-1,2,5,7-tetrahydrofuro[3,4-b]pyridine-3-carboxamido)acetic acid] | 7 nM |
| Cc1ncsc1Cn1c2c(c(O)c(C(=O)NCC(=O)O)c1=O)COC2 [Example 8, 2-(4-hydroxy-1-((4-methylthiazol-5-yl)methyl)-2-oxo-1,2,5,7-tetrahydrofuro[3,4-b]pyridine-3-carboxamido)acetic acid] | 5.2 nM |
| O=C(O)CNC(=O)c1c(O)c2c(n(Cc3ccc(F)cn3)c1=O)COC2 [Example 14, 2-(1-((5-fluoropyridin-2-yl)methyl)-4-hydroxy-2-oxo-1,2,5,7-tetrahydrofuro[3,4-b]pyridine-3-carboxamido)acetic acid] | 6.6 nM |
| O=C(O)CNC(=O)c1c(O)c2c(n(Cc3ncco3)c1=O)COC2 [Example 15, 2-(4-hydroxy-1-(oxazol-2-ylmethyl)-2-oxo-1,2,5,7-tetrahydrofuro[3,4-b]pyridine-3-carboxamido)acetic acid] | 9.7 nM |
| Cn1ccc(Cn2c3c(c(O)c(C(=O)NCC(=O)O)c2=O)COC3)n1 [Example 16, 2-(4-hydroxy-1-((1-methyl-1H-pyrazol-3-yl)methyl)-2-oxo-1,2,5,7-tetrahydrofuro[3,4-b]pyridine-3-carboxamido)acetic acid] | 7.1 nM |
| O=C(O)CNC(=O)c1c(O)c2c(n(Cc3ccccc3)c1=O)COC2 [Example 25, 2-(1-benzyl-4-hydroxy-2-oxo-1,2,5,7-tetrahydrofuro[3,4-b]pyridine-3-carboxamido)acetic acid] | 9.2 nM |
| O=C(O)CNC(=O)c1c(O)c2c(n(Cc3ccc(F)cc3)c1=O)COC2 [Example 26, 2-(1-(4-fluorobenzyl)-4-hydroxy-2-oxo-1,2,5,7-tetrahydrofuro[3,4-b]pyridine-3-carboxamido)acetic acid] | 2.7 nM |
| CC(C)c1ccc(Cn2c3c(c(O)c(C(=O)NCC(=O)O)c2=O)COC3)cc1 [Example 29, 2-(4-hydroxy-1-(4-isopropylbenzyl)-2-oxo-1,2,5,7-tetrahydrofuro[3,4-b]pyridine-3-carboxamido)acetic acid] | 2.9 nM |
| N#Cc1ccccc1Cn1c2c(c(O)c(C(=O)NCC(=O)O)c1=O)COC2 [Example 33, 2-(1-(2-cyanobenzyl)-4-hydroxy-2-oxo-1,2,5,7-tetrahydrofuro[3,4-b]pyridine-3-carboxamido)acetic acid] | 4.6 nM |
| N#Cc1cccc(Cn2c3c(c(O)c(C(=O)NCC(=O)O)c2=O)COC3)c1 [Example 34, 2-(1-(3-cyanobenzyl)-4-hydroxy-2-oxo-1,2,5,7-tetrahydrofuro[3,4-b]pyridine-3-carboxamido)acetic acid] | 2.5 nM |
| O=C(O)CNC(=O)c1c(O)c2c(n(Cc3ccccc3F)c1=O)COC2 [Example 35, 2-(1-(2-fluorobenzyl)-4-hydroxy-2-oxo-1,2,5,7-tetrahydrofuro[3,4-b]pyridine-3-carboxamido)acetic acid] | 4.6 nM |
| O=C(O)CNC(=O)c1c(O)c2c(n(Cc3cccnc3)c1=O)COC2 [Example 37, 3-((3-((carboxymethyl)carbamoyl)-4-hydroxy-2-oxofuro[3,4-b]pyridin-1(2H,5H,7H)-yl)methyl)pyridin-1-ium chloride] | 3.3 nM |
| O=C(O)CNC(=O)c1c(O)c2c(n(Cc3cccc(Cl)c3)c1=O)COC2 [Example 38, 2-(1-(3-chlorobenzyl)-4-hydroxy-2-oxo-1,2,5,7-tetrahydrofuro[3,4-b]pyridine-3-carboxamido)acetic acid] | 4.3 nM |
| COC(=O)c1ccccc1Cn1c2c(c(O)c(C(=O)NCC(=O)O)c1=O)COC2 [Example 39, 2-(4-hydroxy-1-(2-(methoxycarbonyl)benzyl)-2-oxo-1,2,5,7-tetrahydrofuro[3,4-b]pyridine-3-carboxamido)acetic acid] | 19.7 nM |
| COC(=O)c1cccc(Cn2c3c(c(O)c(C(=O)NCC(=O)O)c2=O)COC3)c1 [Example 40, 2-(4-hydroxy-1-(3-(methoxycarbonyl)benzyl)-2-oxo-1,2,5,7-tetrahydrofuro[3,4-b]pyridine-3-carboxamido)acetic acid] | 8.1 nM |
| Cc1cc(Cn2c3c(c(O)c(C(=O)NCC(=O)O)c2=O)COC3)ccc1C#N [Example 44, 2-(1-(4-cyano-3-methylbenzyl)-4-hydroxy-2-oxo-1,2,5,7-tetrahydrofuro[3,4-b]pyridine-3-carboxamido)acetic acid] | 3.1 nM |
| O=C(O)CNC(=O)c1c(O)c2c(n(Cc3ccc(C(F)(F)F)c(Br)c3)c1=O)COC2 [Example 45, 2-(1-(3-bromo-4-(trifluoromethyl)benzyl)-4-hydroxy-2-oxo-1,2,5,7-tetrahydrofuro[3,4-b]pyridine-3-carboxamido)acetic acid] | 3.3 nM |
| O=C(O)CNC(=O)c1c(O)c2c(n(Cc3cnc4ccccc4c3)c1=O)COC2 [Example 48, 2-(4-hydroxy-2-oxo-1-(quinolin-3-ylmethyl)-1,2,5,7-tetrahydrofuro[3,4-b]pyridine-3-carboxamido)acetic acid] | 12.6 nM |

Other lines, results leading:

| IC50 | Compound |
| --- | --- |
| 5.7 nM | O=C(O)CNC(=O)c1c(O)c2c(n(Cc3cncc(F)c3)c1=O)COC2 [Example 10, 2-(1-((5-fluoropyridin-3-yl)methyl)-4-hydroxy-2-oxo-1,2,5,7-tetrdhydrofuro[3,4-b]pyridine-3-carboxamido)acetic acid] |
| 3 nM | N#Cc1ccc(Cn2c3c(c(O)c(C(=O)NCC(=O)O)c2=O)COC3)c(F)c1 [Example 13, 2-(1-(4-cyano-2-fluorobenzyl)-4-hydroxy-2-oxo-1,2,5,7-tetrahydrofuro[3,4-b]pyridine-3-carboxamido)acetic acid] |
| 7.4 nM | O=C(O)CNC(=O)c1c(O)c2c(n(Cc3cnco3)c1=O)COC2 [Example 20, 2-(4-hydroxy-1-(oxazol-5-ylmethyl)-2-oxo-1,2,5,7-tetrahydrofuro[3,4-b]pyridine-3-carboxamido)acetic acid] |
| 10 nM | CNC(=O)c1ccc(Cn2c3c(c(O)c(C(=O)NCC(=O)O)c2=O)COC3)cc1 [Example 23, 2-(4-hydroxy-1-(4-(methylcarbamoyl)benzyl)-2-oxo-1,2,5,7-tetrahydrofuro[3,4-b]pyridine-3-carboxamido)acetic acid] |
| 2.8 nM | COc1ccc(Cn2c3c(c(O)c(C(=O)NCC(=O)O)c2=O)COC3)cc1 [Example 28, 2-(4-hydroxy-1-(4-methoxybenzyl)-2-oxo-1,2,5,7-tetrahydrofuro[3,4-b]pyridine-3-carboxamido)acetic acid] |
| 4 nM | CC(C)(C)c1ccc(Cn2c3c(c(O)c(C(=O)NCC(=O)O)c2=O)COC3)cc1 [Example 30, 2-(1-(4-(tert-butyl)benzyl)-4-hydroxy-2-oxo-1,2,5,7-tetrahydrofuro[3,4-b]pyridine-3-carboxamido)acetic acid] |
| 2.7 nM | O=C(O)CNC(=O)c1c(O)c2c(n(Cc3ccc(F)c(F)c3)c1=O)COC2 [Example 31, 2-(1-(3,4-difluorobenzyl)-4-hydroxy-2-oxo-1,2,5,7-tetrahydrofuro[3,4-b]pyridine-3-carboxamido)acetic acid] |
| 4.8 nM | O=C(O)CNC(=O)c1c(O)c2c(n(Cc3ccccn3)c1=O)COC2 [Example 36, 2-((3-((carboxymethyl)carbamoyl)-4-hydroxy-2-oxofuro[3,4-b]pyridin-1(2H,5H,7H)-yl)methyl)pyridin-1-ium chloride] |
| 8.4 nM | O=C(O)CNC(=O)c1c(O)c2c(n(Cc3cccc(F)c3)c1=O)COC2 [Example 43, 2-(1-(3-fluorobenzyl)-4-hydroxy-2-oxo-1,2,5,7-tetrahydrofuro[3,4-b]pyridine-3-carboxamido)acetic acid] |
| 6.8 nM | O=C(O)CNC(=O)c1c(O)c2c(n(Cc3ccc4ccccc4c3)c1=O)COC2 [Example 47, 2-(4-hydroxy-1-(naphthalen-2-ylmethyl)-2-oxo-1,2,5,7-tetrahydrofuro[3,4-b]pyridine-3-carboxamido)acetic acid] |
